Data from the supplement of paper PMC11208160.

Test: recombinant barcode read abundance after kanamycin selection (control-corrected) (log10(CPM+1)); higher = more efficient recombination; sequences stand for … in AGTGCAGAGAAAATCGGCCAGTTTTCTCTGCCTGCAGTCCGCATGCCGT…AGATTTATGCAGCGGACTGCCTTTCTCCCAAAGTGATAAACCGGACAGTATCATGGACCGGTTTTCCCGGTAATCCGTATTTGCAAGGTTGGTTTCACT; site = the 11-nt target
Summary of the method: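 A promoter, a target, a barcode and the first 104 bridge RNA bases under J23119 made up each oligo. Oligos were Gibson-cloned into a vector bearing the other 73 bp and a T7-inducible recombinase, then co-electroporated into E. coli with a donor plasmid and plated in duplicate on chloramphenicol/ampicillin LB agar (control) or chloramphenicol/ampicillin/kanamycin with 0.1 mM IPTG. Recombination efficiency is the averaged, control-corrected counts per million of recombinant-junction barcodes. Reported values are log10(CPM+1).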
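Further: IS621 recombinase and bridge RNA in Escherichia coli cells.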

Sequence	recombinant barcode read abundance (log10)
TAGGAAACTTGGGTTCTAACCTGTTGCGT (site TAGGATACTAC)	0.447
TAGGCGACTTGGGTTCTAACCTGTTGCTA (site TAGGCGACTTA)	0.454
TAGGCGACTTGGGTTCTAACCTGTTGCTA (site TAGGGCACTTA)	0.156
TAGGCGACTTGGGTTCTAACCTGTTGCTT (site TAGACGACTAA)	0.177
TAGGCGACTTGGGTTCTAACCTGTTGCTT (site TAGCCGACTAA)	0.182
TAGGCGACTTGGGTTCTAACCTGTTGCTT (site TAGGCGACTAA)	0.395
TAGGCGACTTGGGTTCTAACCTGTTGCTT (site TAGTCGACTAA)	0
TAGGCGTCTTGGGTTCTAACCTGTTGCAG (site TAGCCTTCTCT)	0.0835
TAGGCGTCTTGGGTTCTAACCTGTTGCAG (site TAGGCGTCTCT)	2.27
TAGGCTCCTTGGGTTCTAACCTGTTGCAC (site TAGGCTCCTAT)	0.2
TAGGCTCCTTGGGTTCTAACCTGTTGCAC (site TAGGCTCCTCT)	0.0904
TAGGCTCCTTGGGTTCTAACCTGTTGCAC (site TAGGCTCCTGT)	1.94
TAGGCTCCTTGGGTTCTAACCTGTTGCAC (site TAGGCTCCTTT)	0.726
TAGGCTCCTTGGGTTCTAACCTGTTGCTT (site TACGGTCCTAA)	0.0632
TAGGCTCCTTGGGTTCTAACCTGTTGCTT (site TAGGCTCCTAA)	0.277
TAGGCTGCTTGGGTTCTAACCTGTTGCAT (site TAGGCTGCTAT)	0.882
TAGGCTGCTTGGGTTCTAACCTGTTGCAT (site TTGGGTGCTAT)	0.0414
TAGGGCACTTGGGTTCTAACCTGTTGCTA (site TAGGCGACTTA)	0.875
TAGGGCACTTGGGTTCTAACCTGTTGCTA (site TAGGGCACTTA)	1.44
TAGGGTCCTTGGGTTCTAACCTGTTGCGG (site TAAGGTCCTCT)	1.35
TAGGGTCCTTGGGTTCTAACCTGTTGCGG (site TAGGGTCCTCC)	2.88
TAGGGTTCTTGGGTTCTAACCTGTTGCGG (site CAGGGTCCTCC)	0.0906

Sequence	recombinant barcode read abundance (log10)
TAGGGTTCTTGGGTTCTAACCTGTTGCGG (site TAGGGTTCTCC)	3.01
TAGGTCACTTGGGTTCTAACCTGTTGCAT (site TAGATCACTAT)	0.337
TAGGTCACTTGGGTTCTAACCTGTTGCAT (site TAGCTCACTAT)	0.0353
TAGGTCACTTGGGTTCTAACCTGTTGCAT (site TAGGTCACTAT)	2.43
TAGGTCACTTGGGTTCTAACCTGTTGCAT (site TAGTTCACTAT)	0.0621
TAGTAACCTTGGGTTCTAACCTGTTGCTT (site TAGTAACCTAA)	0.683
TAGTAACCTTGGGTTCTAACCTGTTGCTT (site TAGTACCCTCA)	0.0923
TAGTACTCTTGGGTTCTAACCTGTTGCTC (site TAGTACTCTAA)	0.096
TAGTACTCTTGGGTTCTAACCTGTTGCTC (site TAGTACTCTCA)	0.429
TAGTACTCTTGGGTTCTAACCTGTTGCTC (site TAGTACTCTGA)	1.52
TAGTACTCTTGGGTTCTAACCTGTTGCTC (site TAGTACTCTTA)	0.124
TAGTATACTTGGGTTCTAACCTGTTGCTG (site TAGTATACTCA)	1.16
TAGTATACTTGGGTTCTAACCTGTTGCTG (site TCGTATACTCC)	0.0803
TAGTATCCTTGGGTTCTAACCTGTTGCCT (site TAGTAAGCTAG)	0.433
TAGTATCCTTGGGTTCTAACCTGTTGCCT (site TAGTATCCTAG)	1.04
TAGTATGCTTGGGTTCTAACCTGTTGCTA (site TAGTATCCTTA)	0.0173
TAGTATGCTTGGGTTCTAACCTGTTGCTA (site TAGTATGCTTA)	1.39
TAGTCAACTTGGGTTCTAACCTGTTGCGT (site TAGTCAACTAC)	0.593
TAGTCAACTTGGGTTCTAACCTGTTGCGT (site TGGCCAACTAC)	0.0928
TAGTCAGCTTGGGTTCTAACCTGTTGCAC (site TAGTCAGCTGT)	1.2
TAGTCAGCTTGGGTTCTAACCTGTTGCAC (site TGGTCGGCTGT)	0.00985
TAGTCCTCTTGGGTTCTAACCTGTTGCTA (site TAGTCCTCTAA)	0.0289

Sequence	recombinant barcode read abundance (log10)
TAGTCCTCTTGGGTTCTAACCTGTTGCTA (site TAGTCCTCTCA)	0.0797
TAGTCCTCTTGGGTTCTAACCTGTTGCTA (site TAGTCCTCTGA)	0.0492
TAGTCCTCTTGGGTTCTAACCTGTTGCTA (site TAGTCCTCTTA)	1.05
TAGTCCTCTTGGGTTCTAACCTGTTGCTC (site TAGTCCTCTAA)	0.0149
TAGTCCTCTTGGGTTCTAACCTGTTGCTC (site TAGTCCTCTCA)	0.0708
TAGTCCTCTTGGGTTCTAACCTGTTGCTC (site TAGTCCTCTGA)	0.935
TAGTCCTCTTGGGTTCTAACCTGTTGCTC (site TAGTCCTCTTA)	0.118
TAGTGAACTTGGGTTCTAACCTGTTGCAC (site GCCGAGCCTTG)	0.0124
TAGTGAACTTGGGTTCTAACCTGTTGCAC (site TAGTGAACTGT)	0.347
TAGTGCTCTTGGGTTCTAACCTGTTGCCA (site TAGTGCTCTAG)	0.444
TAGTGCTCTTGGGTTCTAACCTGTTGCCA (site TAGTGCTCTCG)	0.0477
TAGTGCTCTTGGGTTCTAACCTGTTGCCA (site TAGTGCTCTGG)	0.00954
TAGTGCTCTTGGGTTCTAACCTGTTGCCA (site TAGTGCTCTTG)	1.16
TAGTGCTCTTGGGTTCTAACCTGTTGCCG (site TAGTGCTCTAG)	0.595
TAGTGCTCTTGGGTTCTAACCTGTTGCCG (site TAGTGCTCTCG)	1.24
TAGTGCTCTTGGGTTCTAACCTGTTGCCG (site TAGTGCTCTGG)	0.0187
TAGTGCTCTTGGGTTCTAACCTGTTGCCG (site TAGTGCTCTTG)	0.355
TAGTGCTCTTGGGTTCTAACCTGTTGCTC (site TAGAGCTCTCA)	0.185
TAGTGCTCTTGGGTTCTAACCTGTTGCTC (site TAGTGCTCTGA)	1.07
TAGTGGACTTGGGTTCTAACCTGTTGCCA (site TAGTGGACTTG)	0.466
TAGTGGACTTGGGTTCTAACCTGTTGCCA (site TAGTGGCCTTG)	0.151
TAGTGTGCTTGGGTTCTAACCTGTTGCTT (site TAGTGTGCTAA)	0.31

Sequence	recombinant barcode read abundance (log10)
TAGTGTGCTTGGGTTCTAACCTGTTGCTT (site TAGTGTGCTAC)	0.117
TAGTTACCTTGGGTTCTAACCTGTTGCCG (site TACTTAGCTCG)	0.00977
TAGTTACCTTGGGTTCTAACCTGTTGCCG (site TAGTTACCTCG)	0.612
TAGTTAGCTTGGGTTCTAACCTGTTGCCC (site TAGTTAGCTAG)	0.0394
TAGTTAGCTTGGGTTCTAACCTGTTGCCC (site TAGTTAGCTCG)	0.0413
TAGTTAGCTTGGGTTCTAACCTGTTGCCC (site TAGTTAGCTGG)	0.945
TAGTTAGCTTGGGTTCTAACCTGTTGCCC (site TAGTTAGCTTG)	0.0262
TAGTTGACTTGGGTTCTAACCTGTTGCCA (site TAGTTAACTTG)	0.45
TAGTTGACTTGGGTTCTAACCTGTTGCCA (site TAGTTCACTTG)	0.00742
TAGTTGACTTGGGTTCTAACCTGTTGCCA (site TAGTTGACTTG)	0.986
TAGTTGACTTGGGTTCTAACCTGTTGCCA (site TAGTTTACTTG)	0.0255
TATAAGACTTGGGTTCTAACCTGTTGCAC (site TAGAAGACTAT)	0.587
TATAAGACTTGGGTTCTAACCTGTTGCAC (site TATAAGACTGT)	0.755
TATAATACTTGGGTTCTAACCTGTTGCGA (site TATAATACTTC)	0.32
TATAATACTTGGGTTCTAACCTGTTGCGA (site TATACTACTTA)	0.0449
TATAATGCTTGGGTTCTAACCTGTTGCGT (site ATCGGACCTCA)	0.15
TATAATGCTTGGGTTCTAACCTGTTGCGT (site TATAATGCTAC)	0.335
TATACTACTTGGGTTCTAACCTGTTGCTA (site TATAATACTTC)	0.511
TATACTACTTGGGTTCTAACCTGTTGCTA (site TATACTACTTA)	0.0716
TATAGCTCTTGGGTTCTAACCTGTTGCCT (site AATAGCTCTAG)	0.0791
